How the values were obtained:
5HT1A receptor = target: T1, 5HT1A receptor (Homo sapiens, UniProt P08908); assay: Competitive receptor binding, 5HT1A (radiolabeled OH-DPAT); settings: for inhibition at 0.1 µM: 100 nM, read-out: Percent inhibition of receptor binding at 100 nM, 5HT1A Receptor Binding
T1 sequence (P08908 1-422): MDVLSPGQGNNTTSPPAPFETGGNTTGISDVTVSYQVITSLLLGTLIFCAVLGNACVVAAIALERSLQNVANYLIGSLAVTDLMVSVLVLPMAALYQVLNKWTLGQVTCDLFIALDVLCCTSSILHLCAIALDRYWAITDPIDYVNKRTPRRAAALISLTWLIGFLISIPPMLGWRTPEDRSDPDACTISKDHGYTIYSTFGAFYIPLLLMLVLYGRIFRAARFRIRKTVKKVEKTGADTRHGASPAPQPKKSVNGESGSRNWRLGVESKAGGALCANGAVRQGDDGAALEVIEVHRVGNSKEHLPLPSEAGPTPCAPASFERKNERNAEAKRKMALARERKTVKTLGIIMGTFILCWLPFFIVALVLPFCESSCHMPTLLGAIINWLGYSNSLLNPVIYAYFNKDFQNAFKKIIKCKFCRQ
Protocol: (§1) A set of compounds were tested for their ability to inhibit binding of a binding ligand to the 5HT1A, 5HT1D, and 5HT7 receptors in a competitive assay. The tested compounds were placed in the assay with either radiolabeled OH-DPAT (which binds the 5HT1A receptor), radiolabeled serotonin (which binds the 5HT1D receptor), or radiolabeled LSD (lysergic acid diethylamide, which binds the 5HT7 receptor).

5HT1D receptor = 5HT1D receptor (Homo sapiens, UniProt P28221); assay: Competitive receptor binding, 5HT1D (radiolabeled serotonin); settings: for inhibition at 0.1 µM: 100 nM, read-out: Percent inhibition of receptor binding at 100 nM, 5HT1D Receptor Binding
Sequence of 5HT1D receptor (P28221 whole entry): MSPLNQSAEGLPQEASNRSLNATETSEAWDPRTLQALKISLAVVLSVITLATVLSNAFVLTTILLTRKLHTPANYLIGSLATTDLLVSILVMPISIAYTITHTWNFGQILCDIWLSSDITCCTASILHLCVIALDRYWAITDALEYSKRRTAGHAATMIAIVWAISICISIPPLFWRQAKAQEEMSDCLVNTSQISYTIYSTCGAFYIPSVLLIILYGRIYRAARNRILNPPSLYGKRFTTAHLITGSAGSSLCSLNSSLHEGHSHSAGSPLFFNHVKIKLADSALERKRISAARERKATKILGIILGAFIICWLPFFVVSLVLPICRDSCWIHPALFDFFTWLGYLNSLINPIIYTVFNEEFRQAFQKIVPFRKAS
Protocol: as §1

5HT7 receptor = 5HT7 receptor (Homo sapiens, UniProt P34969); assay: Competitive receptor binding, 5HT7 (radiolabeled LSD); settings: for inhibition at 0.1 µM: 100 nM, read-out: Percent inhibition of receptor binding at 100 nM, 5HT7 Receptor Binding
Sequence of 5HT7 receptor (P34969 whole entry): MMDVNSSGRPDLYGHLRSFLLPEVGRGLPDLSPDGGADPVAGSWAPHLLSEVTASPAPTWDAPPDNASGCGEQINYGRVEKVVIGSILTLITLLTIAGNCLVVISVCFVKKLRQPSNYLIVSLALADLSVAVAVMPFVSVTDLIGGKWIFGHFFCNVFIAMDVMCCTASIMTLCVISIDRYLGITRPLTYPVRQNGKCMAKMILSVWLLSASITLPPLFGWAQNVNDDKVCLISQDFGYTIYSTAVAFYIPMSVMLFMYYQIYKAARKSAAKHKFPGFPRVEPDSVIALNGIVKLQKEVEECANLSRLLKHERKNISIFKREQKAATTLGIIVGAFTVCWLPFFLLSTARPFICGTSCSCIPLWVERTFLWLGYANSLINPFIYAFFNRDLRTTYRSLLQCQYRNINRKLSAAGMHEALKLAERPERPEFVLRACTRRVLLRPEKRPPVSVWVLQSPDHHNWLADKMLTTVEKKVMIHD
Protocol: as §1

C57 male mice [1] = assay: Condition Avoidance Responding (CAR, active avoidance) model, antipsychotic activity; format: in vivo; settings: 10 mg/kg subcutaneously 30 minutes before test session; C57 male mice tested 24 hours after training; FIG. 1
Protocol: The Condition Avoidance Responding (CAR, active avoidance) model is used as a test for antipsychotic activity. The disruption of avoidance (increased latency) without disruption of escape (extrapyramidal motor function) is a clinical predictor of compounds with antipsychotic activity. The compound of example 10 above (1-[3-(5-Pyridin-4-yl-[1,3,4]oxadiazol-2-ylsulfanyl)propyl]-4-(3-chlorophenyl)piperazine) was evaluated in this model as follows.
(§2) Training of animals (mice) consisted of 20 trials with variable inter-trial intervals (trained to 80% Avoidance Criteria). After a one-minute acclimation period, the house light and an acoustic 90 dB tone (conditioned stimuli) were presented. A response (crossing to a dark compartment) within 5 seconds ended the trial and the trial was recorded as avoidance response (CAR). […] To avoid shock, animals learn to move from the lighted side of the chamber to the dark side when the cue is presented (avoidance) or moved when the shock is administered (escape). Vehicle or test compounds were administered subcutaneously 30 minutes before the test session.
(§3) C57 male mice were tested 24 hours after being trained as described above.

C57 male mice [2] = assay: Condition Avoidance Responding (CAR, active avoidance) model, memory; format: in vivo; settings: 10 mg/kg subcutaneously 30 minutes before test session; C57 male mice tested 24 hours after training; FIG. 2
Description: The Condition Avoidance Responding (CAR, active avoidance) model, although primarily a test for detecting anti-psychotic activity, includes an element of training and learning (acquisition of memory), and thus can also be used as a model for testing a compound's effects on learning (acquisition of information) and memory (retention of information). A decrease in the latency of an animal's response indicates an enhancement of an animal's memory of the stimulus. The compound of example 12 above (1-[3-(1-Phenyl-1H-tetrazol-5-ylsulfanyl)propyl]-4-(3-chlorophenyl)piperazine) was evaluated in this model as follows.
as §2, §3

In the case of `Clc1cccc(N2CCN(CCCSc3nnc(-c4ccncc4)o3)CC2)c1` [Example 10, 1-[3-(5-Pyridin-4-yl-[1,3,4]oxadiazol-2-ylsulfanyl)propyl]-4-(3-chlorophenyl)piperazine], the inhibition at 0.1 µM (5HT1A receptor) is reported as 97%, the inhibition at 0.1 µM (5HT1D receptor) is reported as 51% and the inhibition at 0.1 µM (5HT7 receptor) is reported as 8%. The “latency in CAR (antipsychotic activity)” value (C57 male mice [1]) was “statistically significant increase in latency”.

`Clc1cccc(N2CCN(CCCSc3nnnn3-c3ccccc3)CC2)c1` [Example 12, 1-[3-(1-Phenyl-1H-tetrazol-5-ylsulfanyl)propyl]-4-(3-chlorophenyl)piperazine] was tested, and the inhibition at 0.1 µM (5HT1A receptor) was 75%, the inhibition at 0.1 µM (5HT1D receptor) was 6% and the inhibition at 0.1 µM (5HT7 receptor) was 43%. The “latency in CAR (memory)” value (C57 male mice [2]) was “statistically significant decrease in latency”.

Compound `c1ccc(-n2nnnc2SCCCN2CCN(c3nccc4occc34)CC2)cc1` [Example 40, 4-{4-[3-(1-Phenyl-1H-tetrazol-5-ylsulfanyl)propyl]piperazin-1-yl}furo[3,2-c]pyridine] has an inhibition at 0.1 µM (5HT1A receptor) of 97%, an inhibition at 0.1 µM (5HT1D receptor) of 38% and an inhibition at 0.1 µM (5HT7 receptor) of 67%.

`c1cc(-c2nnc(SCCCN3CCN(c4nccc5occc45)CC3)o2)ccn1` [Example 42, 4-{4-[3-(5-Pyridin-4-yl-[1,3,4]oxadiazol-2-sulfanyl)propyl]piperazin-1-yl}furo[3,2-c]pyridine] was tested, and the “Percent inhibition of receptor binding at 100 nM, 5HT1A Receptor Binding” value (5HT1A receptor) was 96%, the “Percent inhibition of receptor binding at 100 nM, 5HT1D Receptor Binding” value (5HT1D receptor) was 65% and the “Percent inhibition of receptor binding at 100 nM, 5HT7 Receptor Binding” value (5HT7 receptor) was 21%.

`Cn1ccnc1SCCN1CCN(c2cccc(C(F)(F)F)c2)CC1` [Example 1, 1-[2-(1-Methyl-1H-imidazol-2-ylsulfanyl)ethyl]-4-(3-trifluoromethylphenyl)piperazine] showed an inhibition at 0.1 µM (5HT1A receptor) of 87%, an inhibition at 0.1 µM (5HT1D receptor) of 52% and an inhibition at 0.1 µM (5HT7 receptor) of 63%.

For `Cn1ccnc1SCCCN1CCN(c2nccc3occc23)CC1` [Example 38, 4-{4-[3-(1-Methyl-1H-imidazol-2-ylsulfanyl)propyl]piperazin-1-yl}furo[3,2-c]pyridine], the inhibition at 0.1 µM (5HT1A receptor) was 71% and the inhibition at 0.1 µM (5HT7 receptor) was 81%.

Compound `Cn1ccnc1SCCCN1CCN(c2cccc(Cl)c2)CC1` [Example 8, 1-[3-(1-Methyl-1H-imidazol-2-ylsulfanyl)propyl]-4-(3-chlorophenyl)piperazine] has an inhibition at 0.1 µM (5HT1A receptor) of 94%, an inhibition at 0.1 µM (5HT1D receptor) of 50% and an inhibition at 0.1 µM (5HT7 receptor) of 82%.

Compound `FC(F)(F)c1cccc(N2CCN(CCSc3nnc(-c4ccncc4)o3)CC2)c1` [Example 3, 1-[2-(5-Pyridin-4-yl-[1,3,4]oxadiazol-2-ylsulfanyl)ethyl]-4-(3-trifluoromethylphenyl)piperazine] has an inhibition at 0.1 µM (5HT1A receptor) of 92%, an inhibition at 0.1 µM (5HT1D receptor) of 10% and an inhibition at 0.1 µM (5HT7 receptor) of 25%.

Source: US20130289047A1, “HETEROARYLTHIO DERIVATIVES AND ANALOGUES” (EPIOMED THERAPEUTICS, INC., priority 2010, published 2013)
